{"source": "patent US20050032724A1", "about": "(priority 2001, published 2005)", "key": {"MRP1 mRNA": {"test_system": "MRP1 mRNA", "test": "MRP1 mRNA content in duodenal biopsies before and after rifampicin", "type": "in vivo, human", "conditions": "healthy volunteers"}, "[1]": {"conditions": "irinotecan therapy, dose-limiting toxicity; cited from earlier work"}, "[2]": {"test_system": "human colon cancer cell line LS174T", "test": "MTS cytotoxicity assay, growth inhibition, LS174T", "type": "cell-based", "conditions": "for IC50 (50% inhibition of cell growth): LS174T, 3 days treatment", "method": "(§1) The human epithelial cervical cancer cell line KB 3-1 with two subclones (KB 3-1 (MDR1^+++) and KB 3-1 (MDR1^+++, CYP3A5)) and the bladder cancer cell line RT112, also with subclone (RT112 (MDR1^+, UGT1A1)), were cultured in Dulbecco's Modified Eagle Medium (DMEM) including 3.7 g/l NaHCO3, 4.5 g/l D-Glucose, 1.028 g/l N-Acetyl-L-Alanyl-L-glutamine and supplemented with 10% fetal bovine, 1 mM Na-pyruvate and 1% non-essential amino acids. The human colon cancer cell line LS174T was cultured in Dulbecco's modified Eagle medium containing L-glutamine, pyridoxine hydrochloride and 25 mM Hepes buffer without phenol red, supplemented with 10% fetal bovine, 1 mM Na-pyruvate and 1% non-essential amino acids. All cells were incubated at 37° C. with 5% CO2 in a humidified atmosphere.\n(§2) Lower concentrated dilutions were prepared in PBS and cell culture medium.\n(§3) Cells were seeded in 96-well culture plates 24 h prior to treatment. With respect to differential growth rates KB 3-1 and RT112 cells were seeded at 700 cells/well, RT112 (MDR1^+, UGT1A1) at 1000 cells/well and KB 3-1 (MDR1^+++) and KB 3-1 (MDR1^+++, CYP3A5) at 1200 cells/well. LS174T were seeded at 1.0×10^4 cells/well. […] Four well were treated with the same drug dilution. Cells were incubated for 3 days at 37° C. in a humidified 5% CO2 atmosphere.\n(§4) A commercially available MTS assay system (Promega, Madison, USA) was used to determine growth inhibition and cell death according to the instructions of the manufacturer. Three days after adding the drugs, 20 μl of the combined MTS/PMS solution was added to each well of the 96-well culture plate. The plate was incubated for at least 45 min at 37° C. in a humidified 5% CO2 atmosphere and the absorbance at 492 nm was measured. The absorbance values of untreated control cells on each plate were set as 100% growth and used to calculate the remaining growth of drug treated cells. Untreated cells on the culture plates served as controls for unaffected growth and survival.\n(§5) The drug concentration effecting a 50% inhibition of cell growth was defined as the IC50."}, "[3]": {"test_system": "bladder cancer cell line RT112", "test": "MTS cytotoxicity assay, growth inhibition, RT112", "type": "cell-based, human", "conditions": "RT112, 3 days treatment", "method": "as §1, §2\nCells were seeded in 96-well culture plates 24 h prior to treatment. […]\nas §4, with “Three days after adding the drugs, 20 μl of the combined MTS/PMS solution was added to each well of the 96-well culture plate.” left out, “Untreated cells on the culture plates served as controls for unaffected growth and survival.” left out"}, "[4]": {"test_system": "human epithelial cervical cancer cell line KB 3-1", "type": "cell-based", "method": "as §1, §2, §3, §4, §5"}, "KB 3-1 (MDR1^+++) cells": {"test_system": "KB 3-1 (MDR1^+++) cells", "method": "as §1, §2, §3, §4, §5"}, "[5]": {"test_system": "RT112 (MDR1, UGT1A1) cells", "conditions": "for IC50 (50% inhibition of cell growth): RT112 (MDR1, UGT1A1), 3 days treatment", "method": "as §1, §2, §3, §4, §5"}, "[6]": {"conditions": "mass balance studies; cited from earlier work"}, "[7]": {"conditions": "within the first 60 days of treatment, colorectal cancer trials; cited from earlier work"}, "[8]": {"test": "Clinical study of peak plasma digoxin levels at steady state by MDR1 3435C>T genotype", "type": "in vivo, human", "conditions": "14 healthy volunteers, oral digoxin, p=0.006 Mann Whitney U test", "text": "Furthermore, the influence of the MDR1 genotype on intestinal uptake-related pharmacokinetics of digoxin was investigated in a clinical study at the University Medical Center, Charite in Berlin. Maximal digoxin blood levels (Cmax) at steady state were correlated with the MDR1 3435C>T genotype 14 healthy volunteers after oral application of digoxin. […] (p=0.006, Mann Whitney U test) and reflects the impact of this polymorphism on digoxin pharmacokinetics."}, "[9]": {"test_system": "KB 3-1 (MDR1^+++, CYP3A5) cells", "method": "as §1, §2, §3, §4, §5"}}, "note": "“Also recorded” adds a separate entry of the source. Where two headings read alike, the source gives them in different places.", "data": [{"compound": "CO[C@H]1/C=C/O[C@@]2(C)Oc3c(C)c(O)c4c(O)c(c(/C=N/N5CCN(C)CC5)c(O)c4c3C2=O)NC(=O)/C(C)=C\\C=C\\[C@H](C)[C@H](O)[C@@H](C)[C@@H](O)[C@@H](C)[C@H](OC(C)=O)[C@@H]1C", "note": "[rifampicin]", "values": [{"measurement": "effect of rifampicin treatment on MRP1 mRNA expression", "setting": "MRP1 mRNA", "value": "no effect"}]}, {"compound": "irinotecan [CPT-11]", "values": [{"measurement": "diarrhea, occurrence in patients", "setting": "[1]", "value": "up to 88%"}, {"measurement": "IC50 (50% inhibition of cell growth)", "setting": "[2]", "value": 1.5, "unit": "µg/mL"}, {"measurement": "IC50 (50% inhibition of cell growth)", "setting": "[3]", "value": 2.5, "unit": "µg/mL"}, {"measurement": "IC50 with R-Verapamil", "setting": "[4]; KB 3-1, 3 days, with R-Verapamil 10 μg/ml", "value": 4.5, "unit": "µg/mL"}, {"measurement": "IC50 (50% inhibition of cell growth)", "setting": "[4]; KB 3-1, 3 days, without R-Verapamil", "value": 5, "unit": "µg/mL"}, {"measurement": "IC50 with R-Verapamil", "setting": "KB 3-1 (MDR1^+++) cells; KB 3-1 (MDR1+++), 3 days, with R-Verapamil 10 μg/ml", "value": 10, "unit": "µg/mL"}, {"measurement": "IC50 (50% inhibition of cell growth)", "setting": "KB 3-1 (MDR1^+++) cells; KB 3-1 (MDR1+++), 3 days, without R-Verapamil", "value": 85, "unit": "µg/mL"}, {"measurement": "IC50 of RT112 (MDR1, UGT1A1) compared to RT112 cells", "setting": "[5]; RT112 (MDR1, UGT1A1) vs RT112, in words", "value": "two-times higher"}, {"measurement": "IC50 (50% inhibition of cell growth)", "setting": "[5]", "value": 4, "unit": "µg/mL"}, {"measurement": "total dose excreted in the feces", "setting": "[6]", "value": 64, "unit": "%"}, {"measurement": "increase of irinotecan toxicity-related mortality", "setting": "[7]", "value": "~3", "unit": "times"}]}, {"compound": "C[C@H]1O[C@@H](O[C@H]2[C@@H](O)C[C@H](O[C@H]3[C@@H](O)C[C@H](O[C@H]4CC[C@@]5(C)[C@H](CC[C@@H]6[C@@H]5C[C@@H](O)[C@]5(C)[C@@H](C7=CC(=O)OC7)CC[C@]65O)C4)O[C@@H]3C)O[C@@H]2C)C[C@H](O)[C@@H]1O", "note": "[digoxin]", "values": [{"measurement": "Maximal digoxin blood levels (Cmax) at steady state, homozygous T vs C/C MDR1 3435C>T genotype", "setting": "[8]", "value": "statistically significantly different; also recorded: statistically significantly lower"}]}, {"compound": "COc1ccc(CCN(C)CCC[C@](C#N)(c2ccc(OC)c(OC)c2)C(C)C)cc1OC", "note": "[R-Verapamil]", "values": [{"measurement": "effect of addition of R-Verapamil on CPT-11 and SN-38 sensitivity", "setting": "[4]", "value": "only marginal effects"}]}, {"compound": "CCc1c2c(nc3ccc(O)cc13)-c1cc3c(c(=O)n1C2)COC(=O)[C@]3(O)CC", "note": "[SN-38, 7-ethyl-10-hydroxycamptothecin]", "values": [{"measurement": "IC50 (50% inhibition of cell growth)", "setting": "[2]", "value": 0.005, "unit": "µg/mL"}, {"measurement": "efficacy relative to CPT-11 (growth inhibition and cell death)", "setting": "[2]; stated for LS174T, RT112 and KB 3-1 together", "value": 1000, "unit": "fold"}, {"measurement": "IC50 (50% inhibition of cell growth)", "setting": "[3]", "value": 0.004, "unit": "µg/mL"}, {"measurement": "IC50 (50% inhibition of cell growth)", "setting": "[4]", "value": 0.025, "unit": "µg/mL"}, {"measurement": "IC50 with R-Verapamil", "setting": "[4]", "value": 15, "unit": "ng/m"}, {"measurement": "IC50 (50% inhibition of cell growth)", "setting": "KB 3-1 (MDR1^+++) cells", "value": 0.2, "unit": "µg/mL"}, {"measurement": "higher sensitivity after inhibition of MDR1 transport function with R-Verapamil", "setting": "KB 3-1 (MDR1^+++) cells", "value": 10, "unit": "fold"}, {"measurement": "increase of IC50 relative to KB 3-1", "setting": "KB 3-1 (MDR1^+++) cells", "value": "at least 8 times"}, {"measurement": "sensitivity with R-Verapamil", "setting": "KB 3-1 (MDR1^+++) cells", "value": "as sensitive as KB 3-1 cells"}, {"measurement": "IC50 (50% inhibition of cell growth)", "setting": "[9]", "value": "> 0.2", "unit": "µg/mL"}, {"measurement": "higher resistance of RT112 (MDR1, UGT1A1) relative to RT112", "setting": "[5]", "value": 19, "unit": "fold"}, {"measurement": "IC50 (50% inhibition of cell growth)", "setting": "[5]", "value": 0.075, "unit": "µg/mL"}]}]}
